What is called inhibition is the relative decrease from the control value, in per cent. Lower therefore signals little suppression. The term pIC50 denotes −log10 of the IC50, conventionally taken in molar units. A low value points to a high IC50. The melting point is the temperature, or range, at which the solid turns liquid. Broadly, the pEC50 is the EC50 on a negative log10 scale, so that one unit is a factor of ten. Read a low pEC50 as a high EC50.

Experimental findings from patent US9029389B2 (Institut Pasteur Korea, priority 2011, dated 2015) are described below.

For one data set, the target named is T1, Human 5-lipoxygenase (Homo sapiens, UniProt P09917).
T1 construct: purchased Cayman 60402; host or cells: insect cells
T1 sequence (P09917 1-674): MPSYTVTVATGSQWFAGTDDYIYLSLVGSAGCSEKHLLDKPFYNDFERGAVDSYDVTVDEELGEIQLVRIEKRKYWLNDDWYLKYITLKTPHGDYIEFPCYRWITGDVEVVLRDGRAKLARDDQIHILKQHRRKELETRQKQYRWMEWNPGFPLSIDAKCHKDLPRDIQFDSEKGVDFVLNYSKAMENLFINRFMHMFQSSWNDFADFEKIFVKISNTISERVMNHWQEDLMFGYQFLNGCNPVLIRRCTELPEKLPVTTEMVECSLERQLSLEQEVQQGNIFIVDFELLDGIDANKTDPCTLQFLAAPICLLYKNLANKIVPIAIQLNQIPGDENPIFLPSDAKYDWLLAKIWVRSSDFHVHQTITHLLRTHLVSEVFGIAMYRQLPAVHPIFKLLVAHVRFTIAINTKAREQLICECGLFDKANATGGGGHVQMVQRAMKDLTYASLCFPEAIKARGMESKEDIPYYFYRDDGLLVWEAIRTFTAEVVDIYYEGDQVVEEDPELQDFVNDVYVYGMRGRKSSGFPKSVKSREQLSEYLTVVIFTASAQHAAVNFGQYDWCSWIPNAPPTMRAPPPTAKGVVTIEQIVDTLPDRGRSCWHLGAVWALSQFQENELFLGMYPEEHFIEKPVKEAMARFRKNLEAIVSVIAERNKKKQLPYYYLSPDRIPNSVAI
The experiment in a line: Activity of compounds against 5-LO enzyme (LTB4 measurement and/or fluorescence method). Format: biochemical. An outline of the steps: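 Insect-cell human 5-LO preincubated 15 min at RT with compound (pH 7.4, 2 mM CaCl2, 0.1 mM ATP, 1% DMSO), then 3 uM arachidonic acid for 5 min at 37 °C; LTB4 quantified by EIA and/or LC/MS/MS. Alternatively, fluorescence of 5-HpETE via H2DCFDA, 100 uM ATP, 3 uM arachidonic acid, 5 min, RT; single 10 uM screen then 6- or 11-point IC50.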

Data set [1] concerns inflammatory lesions in the lungs. The experiment in a line: Acute TB mouse model of infection, histopathological analysis of lung tissue. Format: in vivo, BalbC mice. The note with it: TB-infected mice, Hematoxylin and Eosin staining, compared with even INH treatment (FIG. 1). Here is the method:
The effect of compound 127 on TB-infected mice was compared to that of the reference compound Isoniazid (INH). 8-week old female BalbC mice were infected with 6×10^5 M. tuberculosis H37Rv via intranasal instillation. Mice were sacrificed at day 1 to control the number of CFU in the lungs. In the acute model of infection, mice were treated for 4 weeks, starting at day 1. Compounds were freshly dissolved in a 0.5% methylcellulose solution and administered by oral gavage 5 times/week. Bacterial load was assessed in lungs after homogenizing the organs in 1×PBS. Serial dilutions of organ homogenates were spread on Middlebrook 7H11 plates and CFU were determined after 3 weeks incubation at 37° C. under 5% CO2. Histopathological analysis of lung tissue was performed by Hematoxylin and Eosin staining.

The test system of data set [2] is production of LTB4 in human PBMC (peripheral blood mononuclear cells). Kind of data set: Production of LTB4 in PBMC (LTB4 secretion assay). To be noted: 12 point dose response in duplicate. Type of data set: cell-based. Here is the method:
Frozen human PBMC (peripheral blood mononuclear cells, AllCells, Cat#[…]) was diluted 50 times with fresh culture media (RPMI 1640 supplemented with 10% FBS, 2 mM L-alanyl-L-glutamine). Cells were harvested by centrifugation and resuspended in fresh culture media to a concentration of 5×10^6 cells per milliliter. 140 ul of cell suspension was then liquated to each well (96-well plate). After incubation at 37° C. for 1 hr under 5% CO2, 10 ul of serially diluted compounds (in 100% DMSO) and 10 ul of arachidonic acid to a final concentration of 30 uM were added and further incubated for 1 hr at 37° C. for 1 hr under 5% CO2. Then, inducers, such as A23187 (Ionophor), sodium arsenite, sodium chloride and/or Anti-DNP IgE, were added in a volume of 40 ul and cells were incubated at 37° C. for […]. Culture supernatant was harvested by centrifugation and LTB4 levels were quantified using LTB4 EIA kit (Cayman, Cat#520111). Six of the 378 compounds tested against the 5-LO enzyme in vitro were also selected to be tested for their activity in a human cellular assay. Compounds were tested in a 12 point dose response in duplicate.

Another data set relates to M. tuberculosis H37Rv. The experiment in a line: Acute TB mouse model of infection, bacterial load in lungs. Format: in vivo, Mycobacterium tuberculosis.

pEC50, pIC50: −log10 of the molar value.

For the molecule `CCc1nc2cc(Cl)ccn2c1C(=O)NCc1ccc(N2CCN(c3ccc(F)cc3)CC2)cc1` [compound 127, 7-Chloro-2-ethyl-N-(4-(4-(4-fluorophenyl)piperazin-1-yl)benzyl)imidazo[1,2-a]pyridine-3-carboxamide], the melting point was 212 to 213 °C. This molecule also returned an inhibition at 10 µM on Human 5-lipoxygenase (5-LO, single concentration of 10 uM in duplicate) of over 69%. Besides, the pIC50 on Human 5-lipoxygenase (6 or 11 point dose response in duplicate) was under 4.70. Moreover, the “number and size of inflammatory lesions in the lungs” value in data set [1] is “significant reduction in the number and size of inflammatory lesions in the lungs”. The molecule also had a pEC50 in data set [2] of over 6.00. In addition, the Log10CFU in the data set on M. tuberculosis H37Rv (50 mg/kg oral gavage 5 times/week, 4 weeks of treatment) is on record as 6.47 Log10CFU. The “reduction of CFU compared to untreated mice” value in the data set with M. tuberculosis H37Rv (50 mg/kg, after 4 weeks of treatment) was about 1 log CFU.
